Measurements reported in patent US20090118135A1, “METHODS AND COMPOUNDS FOR REGULATING APOPTOSIS” (The Burnham Institute, priority 2007, published 2009).
pEC50, pIC50: −log10 of the molar value. “And” between values parts separate entries of the source, which are not always exact repeats. Identical values can stand only once.

Experiments:
GST-Bcl-2 = GST-Bcl-2 (Homo sapiens, UniProt P10415); assay: Bcl-2/FITC-TR3 fluorescence polarization competition assay (PBS + Tween-20); settings: Hill coefficient of Bcl-2 dose-response curve
Chain of GST-Bcl-2 (P10415 1-218 limits assumed): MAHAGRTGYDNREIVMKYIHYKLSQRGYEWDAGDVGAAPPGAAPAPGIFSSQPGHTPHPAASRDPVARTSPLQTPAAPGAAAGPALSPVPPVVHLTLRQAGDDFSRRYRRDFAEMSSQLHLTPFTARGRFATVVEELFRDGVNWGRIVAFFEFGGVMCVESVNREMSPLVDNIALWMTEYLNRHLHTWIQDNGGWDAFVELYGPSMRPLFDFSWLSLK
Method: For the Chembridge screen, IC50s for each compound with respect to the Bcl-B/FITC-TR3 (In Hepes/β-glycerophophate/tween-20) fluorescence polarization and the Bcl-2/FITC-TR3 (In PBS+tween-20) fluorescence polarization assays were identified.
Fluorescence polarization was then measured using an Analyst HT Multi-Mode Plate Reader (LJL Biosystems, Sunnyvale, Calif.).

GST-Bcl-B [1] = target: T1, GST-Bcl-B (Homo sapiens, UniProt Q9HD36); assay: Bcl-B/FITC-TR3-r8 fluorescence polarization competition (displacement) assay, HTS and dose-response; settings: for Bcl-B H Coefficient: Hill coefficient of Bcl-B dose-response curve
T1 sequence (Q9HD36 1-182 limits assumed): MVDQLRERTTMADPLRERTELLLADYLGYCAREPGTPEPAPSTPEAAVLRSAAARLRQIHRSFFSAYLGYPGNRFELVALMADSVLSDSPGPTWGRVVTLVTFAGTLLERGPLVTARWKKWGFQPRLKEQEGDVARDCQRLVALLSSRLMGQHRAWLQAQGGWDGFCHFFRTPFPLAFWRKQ

GST-Hsp70 = GST-Hsp70 (Homo sapiens, UniProt P0DMV8); assay: FITC-ATP/GST-Hsp70 fluorescence polarization counter-screen; type: binding; settings: HSP/FITC-ATP counter screen
Chain of GST-Hsp70 (P0DMV8 whole entry): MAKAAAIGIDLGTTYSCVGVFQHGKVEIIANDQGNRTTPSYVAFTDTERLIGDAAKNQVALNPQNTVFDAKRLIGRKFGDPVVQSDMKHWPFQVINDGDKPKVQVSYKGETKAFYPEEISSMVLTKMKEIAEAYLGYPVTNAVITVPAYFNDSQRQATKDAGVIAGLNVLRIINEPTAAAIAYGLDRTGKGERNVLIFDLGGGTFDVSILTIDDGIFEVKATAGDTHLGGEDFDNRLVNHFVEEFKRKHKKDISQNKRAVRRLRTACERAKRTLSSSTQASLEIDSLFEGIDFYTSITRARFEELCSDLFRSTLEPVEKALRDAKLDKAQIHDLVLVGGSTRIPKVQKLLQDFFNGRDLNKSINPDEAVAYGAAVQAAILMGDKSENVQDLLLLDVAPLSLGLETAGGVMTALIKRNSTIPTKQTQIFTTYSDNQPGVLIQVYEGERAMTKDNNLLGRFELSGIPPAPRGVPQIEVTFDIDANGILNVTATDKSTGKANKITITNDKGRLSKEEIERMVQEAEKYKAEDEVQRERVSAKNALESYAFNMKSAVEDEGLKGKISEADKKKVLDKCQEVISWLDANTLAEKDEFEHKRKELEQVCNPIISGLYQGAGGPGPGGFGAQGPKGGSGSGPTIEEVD
Method: Dose-response curves were then generated (fluorescent compounds were eliminated), followed by counter-screening using a biologically unrelated FPA (GST-Hsp70/FITC-ATP).
A number of assays were then performed to eliminate non-specific or irreproducible hits (FIG. 21). […] Second, compound dose-response curves were generated using the fluorescence polarization assay. […] Finally, 1D-NMR was used to test the compounds for binding to GST-Bcl-B versus GST (as a negative control) (FIG. 22).

GST-Bcl-B [2] = target: T1, GST-Bcl-B; assay: biochemical
GST-Bcl-B [3] = target: T1, GST-Bcl-B; assay: 1D 1H-NMR compound binding, GST-Bcl-B; parameters: their C-terminal transmembrane domains (˜20 amino acids) were deleted to enhance protein solubility; made in house; host or cells: E. coli (BL21 Star (DE3); XL-1 Blue), pGEX-4T-1; settings: result in words
Method: (§1) FIGS. 22A-22F are line graphs showing a ^1H-NMR spectra confirmation of compound binding to Bcl-B. Compounds 5804000, 5954623, and 2011727 were diluted in PBS/D2O buffer to 1000 μM, then incubated with either GST (FIGS. 22A, C, E) or GST-Bcl-B (FIGS. 22B, D, F) at 0, 10 or 20 μM concentrations. FIGS. 22A-B show compound 5804000; FIGS. 22C-D show compound 5954623; and FIGS. 22E-F show the NMR spectra for the negative control compound 2011727. The most prominent peak shift for each compound is shown.
(§2) NMR experiments were performed at 25° C. on a 500 MHz Bruker Avance spectrometer (Bruker, Madison, Wis.) equipped with a 5 mm TXI probe. […] Reference solutions were then used in titration experiments with GST-Bcl-B or GST. All ^1H NMR spectra were obtained with the carrier position set to the water peak signal using WATERGATE. NMR data were processed and analyzed with MestRe Nova (MestReLab Research, Santiago de Compostela, Spain).

GST = target: T2, GST (Schistosoma japonicum, UniProt P08515); assay: 1D 1H-NMR compound binding, GST negative control; settings: negative control protein; result in words
T2 construct: made in house; host or cells: Escherichia coli BL21 Star (DE3), pGEX-4T-1
T2 sequence (P08515 whole entry): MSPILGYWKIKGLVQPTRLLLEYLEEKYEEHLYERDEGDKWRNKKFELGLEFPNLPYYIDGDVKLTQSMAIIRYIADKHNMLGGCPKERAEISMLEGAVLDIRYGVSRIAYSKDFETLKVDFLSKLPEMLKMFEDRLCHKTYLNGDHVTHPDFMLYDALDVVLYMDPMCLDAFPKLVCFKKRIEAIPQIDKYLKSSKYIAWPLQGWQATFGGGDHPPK
Method: as §1, §2

GST-Bcl-B [4] = target: T1, GST-Bcl-B; assay: FITC-Puma-BH3/GST-Bcl-B fluorescence polarization displacement assay; type: binding; parameters: their C-terminal transmembrane domains (˜20 amino acids) were deleted to enhance protein solubility; made in house; host or cells: E. coli (BL21 Star (DE3); XL-1 Blue), pGEX-4T-1; settings: FIG. 23C; result in words
GST-Bcl-B [5] = target: T1, GST-Bcl-B; assay: FITC-Bim-BH3/GST-Bcl-B fluorescence polarization displacement assay; type: binding; parameters: their C-terminal transmembrane domains (˜20 amino acids) were deleted to enhance protein solubility; made in house; host or cells: E. coli (BL21 Star (DE3); XL-1 Blue), pGEX-4T-1; settings: FIG. 23D; result in words

Compound | Bcl-2 H Coefficient (GST-Bcl-2) | pIC50 (GST-Bcl-B [1]; Bcl-B IC50 (g/L)) | IC50 (GST-Bcl-B [1]; Bcl-B IC50 (uM)) | Bcl-B H Coefficient (GST-Bcl-B [1]) | HSP70 IC50 (Hill) (GST-Hsp70) | pIC50 (GST-Bcl-B [2]) | IC50 (GST-Hsp70; read-out: HSP70 IC50 (Hill) (converted)) | binding to GST-Bcl-B by 1D-NMR (GST-Bcl-B [3]) | binding to GST by 1D-NMR (GST) | displacement of FITC-Puma-BH3 from GST-Bcl-B (GST-Bcl-B [4]) | displacement of FITC-Bim-BH3 from GST-Bcl-B (GST-Bcl-B [5]) | pEC50 (GST-Bcl-B [1])
Nc1ccc(Oc2ccc(N)c(N)c2)cc1N [Compound 5152592] | 1.428 | 5.27 | 5.37 µM | 1.303 | High | – | – | – | – | – | – | –
Clc1ccc(C2C=C(c3ccccc3)Nc3ncnn32)cc1 (stereo not drawn) [Compound 5223675] | – | – | – | 0.939 | high | 4.85 | – | – | – | – | – | –
O=C(O)C1Nc2c(Cl)cc(Cl)cc2C2C=CCC12 (stereo not drawn) [Compound 5736518] | 2.956 | – | – | 1.13 | – | 5.99 | 37 µM | – | – | – | – | –
Cc1ccc(C)n1-c1ccc(Cl)cc1C(=O)O [Compound 5950160] | 1.457 | – | – | 0.9279 | high | 6.03 | – | – | – | – | – | –
Cc1ccc(C)n1-c1ccc(Br)cc1C(=O)O [Compound 5954623] | – | – | – | 1.233 | – | 4.81 and 4.79 | – | bound to GST-Bcl-B in a concentration dependent manner | did not bind to GST | displaced FITC-Puma-BH3 | displaced FITC-Bim-BH3 | 5.68
CC1=C(C#N)c2nc(N)c(C#N)c(C)c2/C1=C/c1ccc(-c2ccc(C(=O)O)c(Cl)c2)o1 [Compound 6025233] | 3.081 | – | – | 1.206 | high | 5.78 | – | – | – | – | – | –
